Here are results for 2 molecules from patent US11209437B2, “Fluorescent probe and preparation method and use thereof” (Fluorescence Diagnosis (shanghai) Biotech Company Ltd., priority 2016, dated 2021).

A short description of series [1]: Fluorescence of free probe prior to binding to a protein tag. Format: physicochemical.
The subject of series [2] is HeLa cells with stable expression of protein tags. The series is described as follows: Labeling of HeLa cells expressing protein tags vs HeLa-WT cells, confocal imaging. Format: cell-based. The note with it: probe 5 μM, 37° C., 2 hrs. How it is done:
HeLa cells with stable expression of protein tags and HeLa-WT cells (HeLa primitive cells, with no protein tag expressed) were implanted in a 14 mm glass-bottom 96-well cell culture plate and stabilized for 10 hrs. Probes 1, 15, 21, 30, 56, 60, 63, 88 were added to the media, respectively and diluted to 5 μMs. The cells were incubated in a carbon dioxide incubator at 37° C. for 2 hrs, and then a Leica TPS-8 confocal microscopy was used to image the fluorescent changes of the labeled cells. […] However, for HeLa cells with protein tags expressed shown by group A in FIG. 12, strong fluorescent signals could be detected, which are nearly 300 times stronger.

The next series has as its system fusion protein CX43-SNAP. In words: Tracing assembly of CX43-SNAP intercellular channels in HeLa cells. In kind it is cell-based. To be noted: probe 21 2 μM 1 hour first, then probe 1 1 μM. An excerpt: To verify that the probe of the present invention can be used to monitor the assembly and degradation process of biological macromolecules in mammalian cells in real time, the process of tracing the assembly of intercellular protein CX43 to form intercellular channels in mammalian cells by the probe was detected by taking HeLa cells as an example. The C-terminal of CX43 gene was fused with SNAP gene, and HeLa cell line with stable expression of fusion protein CX43-SNAP was constructed and obtained by lentivirus infection technology. HeLa-CX43-SNAP cell lines were implanted in a 20 mm glass-bottom cell culture dish 10 hrs before the probe labeling. To conduct labeling, a phenol-free red DMEM medium was first used to dilute the probe 21 to 2 μM to replace the original cell culture medium. Cells were incubated in a carbon dioxide incubator at 37° C. for 1 hour. The cells were then washed twice using a fresh phenol-free red DMEM medium, with unbound probe 21 removed at 2-minute intervals. Then, DMEM phenol-free red culture medium containing 1 μM probe 1 was added to label cells. Leica SP8 confocal microscopy was used to monitor for a long time the fluorescence intensity and position changes of labeled cell samples at the corresponding fluorescence channels of probes 21 and 1, as shown in FIGS. 17A and 17B, respectively. […]

In another series the target is T1, SNAP protein tags (Homo sapiens, UniProt P16455, A127T/A154D/C150Q/C62A/E30R/G131K/G132T/G153L/K125A/K32I/L33F/M134L/N157G/Q115S/Q116H/R128A/R135S/S151G/S152D/S159E).
T1 sequence (P16455 1-182 E30R/K32I/L33F/C62A/Q115S/Q116H/K125A/A127T/R128A/G131K/G132T/M134L/R135S/C150Q/S151G/S152D/G153L/A154D/N157G/S159E): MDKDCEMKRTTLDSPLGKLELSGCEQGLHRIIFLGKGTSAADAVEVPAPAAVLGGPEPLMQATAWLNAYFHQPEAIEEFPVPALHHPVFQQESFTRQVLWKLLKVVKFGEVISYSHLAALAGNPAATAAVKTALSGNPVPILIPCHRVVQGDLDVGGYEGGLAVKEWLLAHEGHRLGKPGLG
In words: Fluorescence activation of probe after incubation with corresponding protein tag (SNAP). In kind it is biochemical. The note with it: probe 5 μM, protein tag 10 μM, 37° C., 1 hr. In a few lines: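 Probe (5 μM final) mixed with CLIP or SNAP protein tag (10 μM final) and incubated 1 hr at 37° C. Fluorescence intensity change measured by fluorescence spectrophotometer, with quantum yield of tag-bound probe determined.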

For the next series, the system named is HeLa cells. The series is described as follows: Labeling of organelle-localized protein tags in HeLa cells without washing. Format: cell-based. To be noted: 0.2 μM probe, 2 hrs, no washing. An excerpt: To verify that probes 1, 21, 48, 60, 66 and 77 can be used to label target proteins located by different organelles, HeLa cells were taken as an example to detect the effect of probes on labeling different subcellular proteins. HeLa cells were implanted 5000 cells per well in a 96-well glass-bottom cell culture plate. 14 hrs later, the cells were transfected with the plasmids encoding different organelle localized protein tags using Lipo2000; the original medium was removed 24 hrs after transfection, washed with a phenol-free red DMEM medium twice, and incubated with a phenol-free red medium containing 0.2 μM probes for 2 hrs, and then the cell labeling effects were detected by imaging with a leica TCS-8 confocal microscopy.

For another series, the system named is SNAP-IAA17-H2B protein. The series is described as follows: Fluorescence change on AID-induced degradation of SNAP-IAA17-H2B in HeLa cells. Format: cell-based. To be noted: 1 μM probe; 120 min after indoleacetic acid. An excerpt: To verify the correlation between the fluorescent activation of the probe of the present invention and the existence of proteins, SNAP protein in mammalian cells was taken as an example, and the fluorescence changes of SNAP protein binding probes after protein degradation were detected in HeLa cells by taking AID degradation system as an example. Firstly, HeLa cells were implanted 20,000/cm^2 in a 20 mm glass-bottom cell culture dish, and 14 hrs later, plasmids pcdna3.1-TIR1 and pcdna3.1-SNAP-IAA17-H2B were transfected by invitrogen's lipofectmain2000 transfection reagent. 24 hrs after the cell transfection, the original cell culture medium was replaced with a phenol-free red DMEM medium containing 1 μM of probe 21 to label the cells. The cell samples were incubated in a carbon dioxide incubator at 37° C. for 1 hour. After the labeling was completed, the fluorescence signal of labeled cells was detected by imaging with a Leica SP8 laser confocal microscopy, and indoleacetic acid (IAA) was added to induce SNAP-IAA17-H2B protein to degrade, and the cell fluorescence changes were detected during the protein degradation. […] When proteins exist, the fluorescence is activated, and when proteins are degraded, the fluorescence disappears, which can be used to track and monitor the degradation process of target proteins.

Series [3] in a line: Viscosity responsiveness: fluorescence emission spectra of probes in glycerol and methanol. In kind it is physicochemical. The note with it: for Emission wavelength: excited at maximum excitation wavelength of each probe; for Fluorescence ratio in glycerol to methanol: probe 1×10^−5 M. The method, boiled down: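 Each probe, from a 1×10^−2 M DMSO stock, was diluted to a final 1×10^−5 M in glycerol and in methanol. Fluorescence emission spectra were then recorded under identical conditions at each probe's maximum excitation wavelength.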

The target of series [4] is T2, SNAP protein tag (Homo sapiens, UniProt P16455, A127T/A154D/C150Q/C62A/E30R/G131K/G132T/G153L/K125A/K32I/L33F/M134L/N157G/Q115S/Q116H/R128A/R135S/S151G/S152D/S159E).
T2 construct: expressed in transfected cells; host or cells: mouse liver after tail-vein plasmid injection
T2 sequence (P16455 1-182 E30R/K32I/L33F/C62A/Q115S/Q116H/K125A/A127T/R128A/G131K/G132T/M134L/R135S/C150Q/S151G/S152D/G153L/A154D/N157G/S159E): T1 sequence (P16455 1-182 E30R/K32I/L33F/C62A/Q115S/Q116H/K125A/A127T/R128A/G131K/G132T/M134L/R135S/C150Q/S151G/S152D/G153L/A154D/N157G/S159E)
The series is described as follows: In vivo labeling of SNAP protein tag expressed in mouse liver. The note with it: mice, tail vein injection, 6 hrs after probe. The procedure: (§1) First, a SNAP protein tag expressing plasmid, pcdna3.1-SNAP (sample group), and a control plasmid without SNAP protein tag expressing, pcdna3.1-CAT (control group), were introduced into mice. This method dissolves plasmids in a large volume of solution and rapidly injects them into mice through tail vein injection. The mouse liver and kidneys absorb DNA and then express the target protein. 20 hrs after plasmid injection, 0.4 μM probe 88 dissolved in 200 μl PBS was injected into mice through tail vein injection to label the SNAP protein tag. 6 hrs later, the mice were dissected, and the fluorescence differences in the liver parts of different mouse samples were detected by KODAK multi-spectral in vivo imaging system. The liver fluorescence of the control plasmid pcdna3.1-CAT injected with probe 88 was very low, close to the background fluorescence level of the blank liver without the probe, while the liver of SNAP plasmid pcdna3.1-SNAP injected with probe 88 had strong fluorescence, and the signal intensity was more than 20 times higher than that of the control group.

Series [5] relates to SNAP protein tag. The description is as above. To be noted: mice, tail vein injection, 6 hrs after probe. How it is done:
as §1

Regarding `CN(CCOC(=O)NCc1ccc(COc2nc(N)nc3[nH]cnc23)cc1)c1cc2sc(/C=C(\C#N)C(=O)OC(C)(C)C)cc2s1` [probe 21], the “Quantum yield of free probe” value in [1] is given as <0.001. Moreover, in series [2], the “Fluorescence signal in HeLa-WT cells (no protein tag expressed)” value is “no corresponding fluorescence signal was detected” and the “Fluorescent signal in HeLa cells with protein tags expressed, relative to HeLa-WT” value is on record as ~300 times. Also, the “Fluorescence signal at intercellular channels” value with fusion protein CX43-SNAP is on record as “long-columnar specific fluorescence signal between two cells”. Further, at SNAP protein tags, the Fluorescence activation multiple is 560 and the “Quantum yield of probe bound to protein tag” value is listed as 0.48. The “Labeling of subcellular organelle structures” value with HeLa cells was “clearly display a variety of subcellular organelle structures without washing”. Besides, the “Fluorescence signal after indoleacetic acid-induced protein degradation” value in the series on SNAP-IAA17-H2B protein is reported as “basically invisible”. In series [3], the Emission wavelength is 555 nm and the “Fluorescence ratio in glycerol to methanol” value was 1481.

Regarding `CC1=CC(C)(C)N(CCOC(=O)NCc2ccc(COc3nc(N)nc4[nH]cnc34)cc2)c2ccc(/C=C(\C#N)c3nc4ccccc4o3)cc21` [probe 88], the “Liver fluorescence signal intensity of pcdna3.1-SNAP group relative to control group” value at SNAP protein tag [4] was “more than 20 times”. Moreover, the “Liver fluorescence of control plasmid pcdna3.1-CAT group” value in the series on SNAP protein tag [5] is given as “very low”. Also, the “Quantum yield of free probe” value in series [1] is reported as <0.001. In series [2], the “Fluorescence signal in HeLa-WT cells (no protein tag expressed)” value is reported as “no corresponding fluorescence signal was detected” and the “Fluorescent signal in HeLa cells with protein tags expressed, relative to HeLa-WT” value is ~300 times. On SNAP protein tags, the Fluorescence activation multiple was 621 and the “Quantum yield of probe bound to protein tag” value is 0.29. Besides, in [3], the Emission wavelength is 595 nm and the “Fluorescence ratio in glycerol to methanol” value is recorded as 298.
